# Measurements taken from patent publication US11304955B2, “Small-molecule povidone analogs in coamorphous pharmaceutical phases” (ISP INVESTMENTS LLC, priority 2017, dated 2022).
# How the values were obtained:
# [1] = Hot stage microscope experiments with increasing drug:bisVCap ratios; assay type: physicochemical; conditions: melted, cooled to room temperature
# Description: One major problem with PVP as an amorphous stabilizer is that often a large amount is required for stabilization of the amorphous phase. This often leads to very large pills or dosage forms which consist of multiple tablets. Thus further hot stage microscope and DSC experiments of bisVCap mixtures with carisoprodol, carbamazepine, isoniazid and ROY were performed with increasing drug:bisVCap ratios to determine the minimum ratio of coformer required to maintain the API in an amorphous state.
# For the microscope experiments the drugs and bisVCap were ground in the desired ratio, heated until all the sample had melted then cooled back to room temperature and analyzed by polarized light microscopy.
# (§1) A Linkam LTS420 heating stage attached to a Olympus XC50 microscope was used to heat the samples. Samples were placed on a glass microscope slide with a thin glass cover slide. For the amorphous material screening compounds were ground together in various drug to coformer ratio using 0.05 g of coformer in each case and heated at 30° C. min^−1 until the all of the sample had melted. Samples were then removed from the hot stage and allowed to cool. BisVCap was ground in 1:1 molar mixture with carbamazepine, carisoprodol, isoniazid and ROY. The carbamazepine/bisVCap sample was heated from room temperature to 170° C. at a rate of 10° C. min^−1, cooled at ° C. min^−1 to −40° C., then heated at 10° C. min^−1 to 165° C. The carisoprodol/bisVCap sample was heated from room temperature to 150° C. at a rate of 10° C. min^−1, cooled at ° C. min^−1 to −75° C., then heated at 10° C. min^−1 to 145° C. min^−1. The isoniazid/bisVCap sample was heated from room temperature to 175° C. at a rate of 10° C. min^−1, cooled at ° C. min^−1 to −100° C., then heated at 10° C. min^−1 to 125° C. min^−1. The ROY/bisVCap sample was heated from room temperature to 150° C. at a rate of 10° C. min^−1, cooled at ° C. min^−1 to −90° C., then heated at 10° C. min^−1 to 155° C. min^−1.
# [2] = ground 1:1 mixture with bisVCap, heated to 150-180° C., cooled to −85° C., second heating cycle
# [3] = assay type: physicochemical; conditions: for crystallinity of ROY sample on the basis of birefringence: coformer ground 1:1 molar with ROY (PVP K12, PVCap 1:1 by mass; ROY control without coformer), melted, cooled to room temperature overnight
# From the text: Compounds 3-8 and VCap were all ground using a mortar and pestle in a 1:1 molar ratio with ROY. Comparative experiments were also undertaken in the same way with PVP (K12) (1) and PVCap (2) in a 1:1 ratio by mass with ROY. The samples were then placed on a microscope slide and covered with a thin, glass cover slip and heated using a hot stage optical microscope until all material had melted. The samples were then removed from the hot stage and allowed to cool to room temperature overnight. The cooled samples were examined under a microscope fitted with cross polarizing filters and assessed for crystallinity on the basis of birefringence.
# as §1
# [4] = Heat-cool-heat cycles on hot stage with polarized light microscope; assay type: physicochemical; conditions: 1:1 mixture with bisVCap
# From the text: The same heat-cool-heat cycles used in the DSC experiments were reproduced using a hot stage attached to a polarized light microscope for 1:1 mixtures of carisoprodol, carbamazepine, isoniazid and ROY with bisVCap.
# as §1
# [5] = Screening of bisVCap and bisVP with a range of drugs (hot stage melt, polarized optical microscopy); assay type: physicochemical; conditions: for crystallinity by polarized light microscopy, drug with bisVCap: drug:bisVCap 1:1 mol ratio, ground, melted, cooled, overnight / 18 hours at room temperature
# Description: Control samples without lactam coformers were also prepared for comparison. The slides were then allowed to cool to room temperature. The samples were examined using polarized optical microscopy after storing them overnight and again two weeks after melting to assess their crystallinity. Polarized optical micrographs were observed.
# as §1, with “For the amorphous material screening compounds were ground together in various drug to coformer ratio using 0.05 g of coformer in each case and heated at 30° C. min^−1 until the all of the sample had melted.” left out
# [6] = Dynamic vapor sorption (DVS) water uptake; assay type: physicochemical; conditions: for hygroscopicity: DVS, small mass increase and lack of hysteresis; for mass increase in DVS plot: up to 90% relative humidity
# Description: A significant issue with PVP as an amorphous stabilizer is its hydroscopicity, and amorphous materials are frequently hygroscopic. Dynamic vapor sorption (DVS) has been used to compare the water uptake of bisVCap and PVP. […] However, amorphous forms have more apparent solubility than crystal forms and it is possible that amorphous bisVCap could absorb much more water than the crystalline form.
# DVS was performed using an SMS DVS-1 with a 10% RH step between humidity values with equilibrium achieved at 0.01% weight change before moving to the next step. Methods began at the humidity of the room at ambient which was measured by a Rotronic A/H hygrometer. The humidity was then increased to 90% RH before cycling to 0% RH, to 90% RH, to 0% RH. Samples weighing between 5-20mg were used.
compound,measurement,setting,value
"Cc1cc(C#N)c(Nc2ccccc2[N+](=O)[O-])s1 [ROY, 5-methyl-2-[(2-nitrophenyl)amino]-3-thiophenecarbonitrile]",visible crystallization by polarized light microscopy,[1]; 2:1 drug:bisVCap molar ratio,no visible crystallization
same,visible crystallization by polarized light microscopy,[1]; 3:1 drug:bisVCap ratio,formed crystals overnight
same,DSC behaviour of mixture with bisVCap,[2],"lacking features assignable to decomposition, recrystallization or melting endotherms in the second heating cycle"
same,crystallinity of ROY sample on the basis of birefringence,[3],readily crystallizes
same,time to ROY crystallization upon cooling,"[3]; melt of ROY alone or 1:1 molar with coformer, cooling to room temperature",within a few minutes
same,coamorphous phase formation in hot stage heat-cool-heat cycle,[4],confirm coamorphous phase formation
CCCCC(=O)N(Cc1ccc(-c2ccccc2-c2nnn[nH]2)cc1)[C@H](C(=O)O)C(C)C [Valsartan],"crystallinity by polarized light microscopy, drug on its own","[5]; control sample without lactam coformer, melted and cooled to room temperature",remains amorphous
CCOC(=O)c1ccc(N)cc1 [benzocaine],"crystallinity by polarized light microscopy, drug with bisVCap",[5],crystallized overnight
Cn1c(=O)c2c(ncn2C)n(C)c1=O [caffeine],"crystallinity by polarized light microscopy, drug with bisVCap",[5],crystallized overnight
NC(=O)N1c2ccccc2C=Cc2ccccc21 [carbamazepine],visible crystallization by polarized light microscopy,[1]; 2:1 drug:bisVCap molar ratio,no visible crystallization
same,visible crystallization by polarized light microscopy,[1]; 3:1 drug:bisVCap ratio,formed crystals overnight
same,DSC behaviour of mixture with bisVCap,[2],"lacking features assignable to decomposition, recrystallization or melting endotherms in the second heating cycle"
same,coamorphous phase formation in hot stage heat-cool-heat cycle,[4],confirm coamorphous phase formation
same,"crystallinity by polarized light microscopy, drug with bisVCap",[5],appear amorphous
CCCC(C)(COC(N)=O)COC(=O)NC(C)C (stereo not drawn) [carisoprodol],visible crystallization by polarized light microscopy,[1]; 2:1 drug:bisVCap molar ratio,no visible crystallization
same,visible crystallization by polarized light microscopy,[1]; 3:1 drug:bisVCap ratio,did not show any visible crystallization
same,visible crystallization by polarized light microscopy,[1]; 4:1 drug:bisVCap ratio,formed crystals overnight
same,DSC behaviour of mixture with bisVCap,[2],"lacking features assignable to decomposition, recrystallization or melting endotherms in the second heating cycle"
same,coamorphous phase formation in hot stage heat-cool-heat cycle,[4],confirm coamorphous phase formation
same,"crystallinity by polarized light microscopy, drug with bisVCap",[5],appear amorphous
NCCc1ccc(O)c(O)c1 [dopamine],"crystallinity by polarized light microscopy, drug with bisVCap",[5],appear amorphous
CCc1cc(C(N)=S)ccn1 [ethionamide],DSC behaviour of mixture with bisVCap,[2],"sharp and overlapping endothermic peaks on heating, which arise from decomposition"
same,"crystallinity by polarized light microscopy, drug with bisVCap",[5],appear amorphous
CC(C)Cc1ccc(C(C)C(=O)O)cc1 (stereo not drawn) [ibuprofen],DSC behaviour of mixture with bisVCap,[2],"sharp and overlapping endothermic peaks on heating, which arise from decomposition"
same,"crystallinity by polarized light microscopy, drug with bisVCap",[5],appear amorphous
NNC(=O)c1ccncc1 [isoniazid],visible crystallization by polarized light microscopy,[1]; 2:1 drug:bisVCap molar ratio,no visible crystallization
same,visible crystallization by polarized light microscopy,[1]; 3:1 drug:bisVCap ratio,formed crystals overnight
same,DSC behaviour of mixture with bisVCap,[2],"lacking features assignable to decomposition, recrystallization or melting endotherms in the second heating cycle"
same,coamorphous phase formation in hot stage heat-cool-heat cycle,[4],confirm coamorphous phase formation
same,"crystallinity by polarized light microscopy, drug with bisVCap",[5],appear amorphous
CN(C)C(=N)N=C(N)N [metformin],"crystallinity by polarized light microscopy, drug with bisVCap",[5],crystallized overnight
Cc1cccc(C)c1OCC(C)N (stereo not drawn) [mexiletine],DSC behaviour of mixture with bisVCap,[2],"sharp and overlapping endothermic peaks on heating, which arise from decomposition"
same,"crystallinity by polarized light microscopy, drug with bisVCap",[5],appear amorphous
Cc1c(Cl)cccc1Nc1ccccc1C(=O)O [tolfenamic acid],DSC behaviour of mixture with bisVCap,[2],"sharp and overlapping endothermic peaks on heating, which arise from decomposition"
same,"crystallinity by polarized light microscopy, drug with bisVCap",[5],appear amorphous
(bis)vinylcaprolactam [Amorphous bisVCap],hygroscopicity,[6],not significantly hygroscopic
same,mass increase in DVS plot,[6],1.2%
(bis)vinylcaprolactam [bisVCap],hygroscopicity,[6],not hydroscopic
same,stability of coamorphous phase with ROY on storage,[3],stable for prolonged periods
same,crystallinity of ROY sample on the basis of birefringence,[3],gives a coamorphous phase with ROY
(bis)vinylcaprolactam [crystalline bisVCap],hygroscopicity,[6],not significantly hygroscopic
same,mass increase in DVS plot,[6],0.35%
